# Earlier results in paper PMC4984525 (Cancer, 2011).
# Tested on: patients with resistant ovarian cancer
# Conditions: preliminary results of a Phase 2 trial; cited from earlier work
compound,measurement,value
Cc1ccc(C(=O)N(CCCN)[C@@H](c2nc3cc(Cl)ccc3c(=O)n2Cc2ccccc2)C(C)C)cc1 [ispinesib],clinical activity,has clinical activity
